# Experimental data from patent US20240216444A1, “DESIGNED BACTERIAL COMPOSITIONS” (Seres Therapeutics, Inc., priority 2015, published 2024).
# Tests used:
# [1] = system: bile salt hydrolase (BSH) activity on conjugated bile acids; assay: LC-MS screen for bile salt hydrolase (BSH) activity; conditions: for BSH gCA: substrate gCA; for BSH gCDCA: substrate gCDCA; for BSH t-aMCA: substrate t-aMCA; for BSH t-bMCA: substrate t-bMCA; for BSH tCA: substrate tCA; for BSH tCDCA: substrate tCDCA
# Description: To conduct the assay, briefly, bacteria were grown on permissive agar media plates for 24 to 48 hours to generate sufficient biomass to carry out assays. The bacterial lawns were resuspended in PBS to create a homogenous suspension that was then used for the BSH assay. To assay for BSH activity, bacterial suspensions were incubated with two separate mixtures of four distinct conjugated bile acids, each at concentration of 150 μg/ml, for 4 hours at 37° C. under anaerobic conditions. The reaction mixture was then extracted with an equal volume of acetonitrile, spun down to pellet bacteria and the supernatant filtered through a 0.2 μM filter to generate a sample for LC-MS analysis. Bile acids were determined using an Agilent 1260 HPLC coupled to a Bruker Compact qTOF MS. Samples were run on a bidentate C18 column using an acetonitrile:water buffer system to separate bile acids which were then ionized in negative mode and identified using a qTOF-MS. BSH activity was determined by the formation of deconjugated bile acid products that were verified by comparison to known standards and quantified, if necessary, using standard curves.
# [2] = SCFA profile of bacterial culture supernatants by GC-MS; conditions: for propionate production: GC-MS, fucose as carbon source
# From the text: The same bacterial culture supernatants used for HDAC inhibition assays described supra were submitted to GC-MS analysis to determine which SCFAs underlie the observed inhibition of HDAC. The method employed (MSOmics, Denmark) measures formate, acetate, propionate, butyrate, isobutyrate (2-methyl-propionate), isovalerate (3-methyl-butyrate), valerate (pentanoate), 4-methyl-pentanoate, caproate (hexanoate), and heptanoate. […] Numbers in Table 11 indicate detected SCFA concentration. B=butyrate; P=propionate; IB=isobutyrate, and IV=isovalerate.
# [3] = system: HDAC enzymes (HeLa nuclear extract); assay: HDAC inhibition activity in supernatants of cultures grown in different carbon sources; conditions: 25% HDAC inhibition as cut off
# Description: To determine whether the HDAC inhibition was affected by the type and level of carbon source available to a bacterial species, HDAC inhibition by supernatants derived from a selection of bacterial species used in DBCs was determined. In these experiments, bacteria were grown in a variety of carbon sources including mono-, di-, polysaccharides, and porcine mucine. Briefly, 600 μL bacterial cultures in peptone/yeast extract medium (PY) supplemented with 0.5% of the selected carbon sources were inoculated in 96 deep well plates, grown for 4 days, then the microbial cells were pelleted by centrifugation, and 15 μL of the culture medium (supernatant) was used for the HDAC assay with HeLa nuclear extract as described above. Because HDAC activity is reduced at low pH (Latham et al. 2012 Nucl Acid Res 40:4794-803) and the microbial cultures had pH as low as 5, to ensure that the final pH of the assay was not reduced by the addition of supernatant, 10 μL of a 1M Tris pH 8 solution was added per well to bring the final Tris buffer concentration to 75 mM. Thus, assays were performed with 15 μL supernatant, 10 μL 1M Tris pH 8, 25 μL of assay buffer and 50 μL of diluted HeLa nuclear extract, which were preincubated for 30 minutes prior to the addition of developing reagent. Luminescence was measured after 30 minutes.
# [4] = system: C. difficile carbon sources; assay: Carbon source utilization, 87 carbon sources in three base media, OD600 and acid production (Example 3B); format: cell-based; design: key: “+” and “w” refer to “positive” and “weak” utilization of the carbon source, respectively; “+” and “w” refer to “positive” and “weak” utilization of the carbon source, respectively; conditions: for utilization of carbon source NAG: NAG (N-acetylglucosamine)
# From the text: Three C. difficile strains and 12 non-C. difficile bacterial strains were profiled using a panel of carbon sources. As used herein, unless otherwise indicated, carbon sources includes all sources tested as growth substrates in the experiments herein. The three C. difficile strains were Clostridium difficile ATCC 9689, Clostridium difficile ATCC 43593, and Clostridium difficile ATCC 43255, all of which are available from the American Type Culture Collection (ATCC).
# Growth of the strains was tested on 87 different carbon sources in a 96-well plate format. The panel contained 34 carbon sources reported to be utilized by C. difficile in the literature (Hafiz and Oakley. 1976 J Med Microbiol 9:129-36; Wilson and Perini. 1988 Infection and Immunity 56:2610-14; Bergey and Holt. Bergey's Manual of Determinative Bacteriology. Baltimore: Williams & Wilkins, 1994; Sebaihia et al. 2006 Nature Genetics 38:779-786) including amino acids, mono-, di-, tri- and polysaccharides, glucoside and sugar alcohols. Carbon sources were added at 0.5% into three different base media (Base medium 1 SSNC composition: beef extract 1 g/L, yeast extract 2 g/L, bacto soytone 6 g/L, NaCl 4 g/L, KH2PO4 5.44 g/L, MgSO4 2 mM, CaCl2 1 mM, MnCl2 0.1 mM, cysteine hydrochloride 0.25 g/L, hemin 10 mg/L, menadione 1 mg/L, MOPS 6.3 g/L, pH 7; Base medium 2 SPOSCR composition: beef extract 1 g/L, yeast extract 2 g/L, bacto soytone 6 g/L, NaCl 4 g/L, KH2PO4 5.44 g/L, MgSO4 2 mM, CaCl2) 1 mM, MnCl2 0.1 mM, cysteine hydrochloride 0.25 g/L, hemin 10 mg/L, menadione 1 mg/L, MOPS 8.4 g/L, NaHCO3 0.4%, pH 7; Base medium 3 YCFA: casitone 10 g/L, yeast extract 2.5 g/L, cysteine hydrochloride 1 g/L, hemin 10 mg/L, ATCC vitamin solution 10 mL/L, ATCC trace element solution 10 mL/L, K2HPO4 0.45 g/L, KH2PO4 0.45 g/L, (NH4)2SO4 0.9 g/L, MgSO4×7H2O 90 mg/L, CaCl2) 90 mg/L, acetic acid 33 mM, propionic acid 9 mM, isobutyric acid 1 mM, isovaleric acid 1 mM, valeric acid 1 mM, pH 7).
# Positive growth was scored by measuring optical density at 600 nm and comparing it to growth in base medium without an added carbon source. For two, base media acid production was also scored by measuring optical density at 558 nm of pH-indicator phenol red mixed with spent medium from each culture.
# [5] = system: HSDH activity (7-, 3- or 12-hydroxyl groups) on cholic, chenodeoxycholic, deoxycholic and lithocholic acid; assay: LC-MS screen for hydroxysteroid dehydrogenase (HSDH) activity; format: biochemical; conditions: LC-MS
# [6] = system: 7α-dehydroxylation of cholic acid and chenodeoxycholic acid; assay: LC-MS screen for 7α-dehydroxylation (7α-OH) activity; format: biochemical; conditions: LC-MS
# [7] = system: bile salt hydrolase (BSH) activity on conjugated bile acids (gCA, tCA, gCDCA, tCDCA); assay: Bile salt hydrolase (BSH) activity screen using TLC; format: biochemical
substance,measurement,setting,value
Clostridium bolteae,BSH gCA,[1],"+ (‘+’ indicates greater than 50-fold increase in levels of product bile acid, suggesting strong activity)"
same,BSH gCDCA,[1],"+ (‘+’ indicates greater than 50-fold increase in levels of product bile acid, suggesting strong activity)"
same,BSH t-aMCA,[1],"+ (‘+’ indicates greater than 50-fold increase in levels of product bile acid, suggesting strong activity)"
same,BSH t-bMCA,[1],"+ (‘+’ indicates greater than 50-fold increase in levels of product bile acid, suggesting strong activity)"
same,BSH tCA,[1],"+ (‘+’ indicates greater than 50-fold increase in levels of product bile acid, suggesting strong activity)"
same,BSH tCDCA,[1],"+ (‘+’ indicates greater than 50-fold increase in levels of product bile acid, suggesting strong activity)"
same,propionate production,[2],produced propionate but only when supplied with fucose as a carbon source
same,HDAC inhibition when alternative nutrient sources are tested,[3],positive
same,utilization of carbon source Citrus pectin,[4],+
same,utilization of carbon source NAG,[4],+
same,utilization of carbon source cysteine,[4],w
same,utilization of carbon source fructose,[4],+
same,utilization of carbon source glucose,[4],+
same,utilization of carbon source mannose,[4],+
same,utilization of carbon source melezitose,[4]; melezitose,+
same,utilization of carbon source oxalate,[4],+
same,utilization of carbon source propanediol,[4],+
same,utilization of carbon source rhamnose,[4]; rhamnose,+
same,utilization of carbon source ribose,[4],+
same,utilization of carbon source serine,[4],w
same,utilization of carbon source sialic acid,[4],+
same,utilization of carbon source sucrose,[4],+
same,utilization of carbon source trehalose,[4],+
same,utilization of carbon source tryptophan,[4],w
same,utilization of carbon source xylose,[4]; xylose,+
same,HSDH 3a,[5],"+ (‘+’ indicates greater than 50-fold increase in levels of product bile acid, suggesting strong activity)"
same,HSDH 7a,[5],−
same,HSDH 12a,[5],−
same,7a Dehydrox CA,[6]; substrate CA,−
same,7a Dehydrox CDCA,[6]; substrate CDCA,−
Clostridium disporicum,BSH gCA,[1],−
same,BSH gCDCA,[1],"+/− (‘+/−’ indicates ≤50-fold change in product bile acid levels, suggesting weak activity)"
same,BSH t-aMCA,[1],"+ (‘+’ indicates greater than 50-fold increase in levels of product bile acid, suggesting strong activity)"
same,BSH t-bMCA,[1],"+ (‘+’ indicates greater than 50-fold increase in levels of product bile acid, suggesting strong activity)"
same,BSH tCA,[1],"+/− (‘+/−’ indicates ≤50-fold change in product bile acid levels, suggesting weak activity)"
same,BSH tCDCA,[1],"+ (‘+’ indicates greater than 50-fold increase in levels of product bile acid, suggesting strong activity)"
same,propionate production,[2],produced propionate but only when supplied with fucose as a carbon source
same,HDAC inhibition when alternative nutrient sources are tested,[3],positive
same,utilization of carbon source Apple pectin,[4]; Apple pectin,w
same,utilization of carbon source Citrus pectin,[4],+
same,utilization of carbon source NAG,[4],+
same,utilization of carbon source arbutin,[4]; arbutin,+
same,utilization of carbon source cellobiose,[4]; cellobiose,+
same,utilization of carbon source cyclodextrin,[4]; cyclodextrin,+
same,utilization of carbon source cysteine,[4],w
same,utilization of carbon source esculin,[4]; esculin,+
same,utilization of carbon source fructose,[4],+
same,utilization of carbon source glucose,[4],+
same,utilization of carbon source glutamine,[4]; glutamine,w
same,utilization of carbon source glycogen,[4],+
same,utilization of carbon source mannose,[4],+
same,utilization of carbon source oxalate,[4],w
same,utilization of carbon source salicin,[4]; salicin,+
same,utilization of carbon source serine,[4],w
same,utilization of carbon source starch,[4]; starch,+
same,utilization of carbon source sucrose,[4],+
same,utilization of carbon source threonine,[4],w
same,utilization of carbon source trehalose,[4],+
same,HSDH 3a,[5],−
same,HSDH 7a,[5],"+ (‘+’ indicates greater than 50-fold increase in levels of product bile acid, suggesting strong activity)"
same,HSDH 12a,[5],"+/− (‘+/−’ indicates ≤50-fold change in product bile acid levels, suggesting weak activity)"
same,HSDH 3a,[5]; 3a-HSDH,−
same,HSDH 7a,[5]; 7a-HSDH,"+ (‘+’ indicates greater than 50-fold increase in levels of product bile acid, suggesting strong activity)"
same,HSDH 12a,[5]; 12a-HSDH,−
same,7a Dehydrox CA,[6]; substrate CA,−
same,7a Dehydrox CDCA,[6]; substrate CDCA,−
same,7a Dehydrox CDCA,[6]; substrate chenodeoxycholic acid,−
same,7a Dehydrox CA,[6]; substrate cholic acid,−
Clostridium glycolicum,BSH gCA,[1],"+ (‘+’ indicates greater than 50-fold increase in levels of product bile acid, suggesting strong activity)"
same,BSH gCDCA,[1],"+ (‘+’ indicates greater than 50-fold increase in levels of product bile acid, suggesting strong activity)"
same,BSH t-aMCA,[1],"+ (‘+’ indicates greater than 50-fold increase in levels of product bile acid, suggesting strong activity)"
same,BSH t-bMCA,[1],"+ (‘+’ indicates greater than 50-fold increase in levels of product bile acid, suggesting strong activity)"
same,BSH tCA,[1],"+ (‘+’ indicates greater than 50-fold increase in levels of product bile acid, suggesting strong activity)"
same,BSH tCDCA,[1],"+ (‘+’ indicates greater than 50-fold increase in levels of product bile acid, suggesting strong activity)"
same,SCFAs produced,[2]; GC-MS of culture supernatants,"produced isovalerate, isobutyrate and propionate"
same,indole test,"12 strains, eight carbon sources",positive
same,colour of culture in indole test,"F. plautii: each of the 8 carbon sources, C. glycolicum: all C-sources except glucose, pectin, FOS/inulin",turned red
same,HDAC inhibition when alternative nutrient sources are tested,[3],positive
same,utilization of carbon source Citrus pectin,[4],+
same,utilization of carbon source NAG,[4],+
same,utilization of carbon source alanine,[4]; alanine,w
same,utilization of carbon source arginie,[4]; arginie,w
same,utilization of carbon source aspartic acid,[4]; aspartic acid,+
same,utilization of carbon source formate,[4]; formate,+
same,utilization of carbon source fructose,[4],+
same,utilization of carbon source glucose,[4],+
same,utilization of carbon source glycogen,[4],w
same,utilization of carbon source guar,[4]; guar,w
same,utilization of carbon source isoleucine,[4]; isoleucine,+
same,utilization of carbon source leucine,[4]; leucine,+
same,utilization of carbon source ornithine,[4]; ornithine,w
same,utilization of carbon source polygalacturonate,[4]; polygalacturonate,+
same,utilization of carbon source propanediol,[4],w
same,utilization of carbon source ribose,[4],+
same,utilization of carbon source serine,[4],+
same,utilization of carbon source sialic acid,[4],w
same,utilization of carbon source threonine,[4],+
same,utilization of carbon source tryptophan,[4],+
same,utilization of carbon source valine,[4]; valine,+
same,utilization of carbon source α-ketoglutarate,[4]; α-ketoglutarate,+
same,BSH activity on gCDCA by TLC,[7],no BSH activity
same,HSDH 3a,[5],"+ (‘+’ indicates greater than 50-fold increase in levels of product bile acid, suggesting strong activity)"
same,HSDH 7a,[5],"+ (‘+’ indicates greater than 50-fold increase in levels of product bile acid, suggesting strong activity)"
same,HSDH 12a,[5],−
same,7a Dehydrox CA,[6]; substrate CA,−
same,7a Dehydrox CDCA,[6]; substrate CDCA,−
